Measurements reported in ChEMBL document CHEMBL4251666, “Quest for Efficacious Next-Generation Taxoid Anticancer Agents and Their Tumor-Targeted Delivery” (J Nat Prod, 2018).

What was measured:
[1] = test system: HCT-116; assay: Cytotoxicity against CD133 positive human HCT116 cells; type: functional, cell-based
[2] = test system: MCF7; assay: Cytotoxicity against human paclitaxel-resistant MCF7 cells after 72 hrs by MTT assay; type: functional, cell-based; settings: MCF7, 72 h
[3] = test system: MCF7; assay: Cytotoxicity against human MCF7 cells; type: functional, cell-based
[4] = test system: A121; assay: Cytotoxicity against human A121 cells; type: functional, cell-based
[5] = test system: A549; assay: Cytotoxicity against human A549 cells; type: functional, cell-based
[6] = Cytotoxicity against human MDA435/LCC6 cells; type: functional, cell-based; settings: MDA-435/LCC6
[7] = Cytotoxicity against human CD133/CD44 positive PC3MM2 cells assessed as cell death at 0.01 to 10 uM after 72 hrs by MTT assay; type: functional
[8] = Cytotoxicity against human CD133/CD44 positive PPT2 cells assessed as cell death at 0.01 to 10 uM after 72 hrs by MTT assay; type: functional

Structure (SMILES)	IC50 [1] [µM]	IC50 [2] [µM]	further results
CC(=O)O[C@@]12CO[C@@H]1C[C@H](O)[C@@]1(C)C(=O)[C@H](OC(=O)C3CC3)C3=C(C)[C@@H](OC(=O)[C@H](O)[C@H](C=C(C)C)NC(=O)OC(C)(C)C)C[C@@](O)([C@@H](OC(=O)c4ccccc4)[C@H]21)C3(C)C	0.00028	0.0805	–
CC(=O)O[C@@]12CO[C@@H]1C[C@H](O)[C@@]1(C)C(=O)[C@H](OC(=O)N(C)C)C3=C(C)[C@@H](OC(=O)[C@H](O)[C@H](C=C(C)C)NC(=O)OC(C)(C)C)C[C@@](O)([C@@H](OC(=O)c4ccccc4)[C@H]21)C3(C)C	0.00083	–	–
CC(=O)O[C@H]1C(=O)[C@@]2(C)[C@H]([C@H](OC(=O)c3ccccc3)[C@]34OC(=O)O[C@H]3[C@H](OC(=O)[C@H](O)[C@H](C=C(C)C)NC(=O)OC(C)(C)C)C(C)=C1C4(C)C)[C@]1(OC(C)=O)CO[C@@H]1C[C@@H]2O	–	0.0667	–
CC(=O)O[C@H]1C(=O)[C@@]2(C)[C@H]([C@H](OC(=O)C=C(C)C)[C@]3(O)C[C@H](OC(=O)[C@H](O)[C@H](C=C(C)C)NC(=O)OC(C)(C)C)C(C)=C1C3(C)C)[C@]1(OC(C)=O)CO[C@@H]1C[C@@H]2O	–	–	IC50 [3]: 0.0009 µM; IC50 [4]: 0.0009 µM; IC50 [5]: 0.0009 µM
CC(=O)O[C@@]12CO[C@@H]1C[C@H](O)[C@@]1(C)C(=O)[C@H](OC(=O)C3CC3)C3=C(C)[C@@H](OC(=O)[C@H](O)[C@H](C=C(C)C)NC(=O)OC(C)(C)C)C[C@@](O)([C@@H](OC(=O)c4cccc(OC(F)(F)F)c4)[C@H]21)C3(C)C	–	0.0349	–
CC(=O)O[C@@]12CO[C@@H]1C[C@H](O)[C@@]1(C)C(=O)[C@H](OC(=O)N(C)C)C3=C(C)[C@@H](OC(=O)[C@H](O)[C@H](C=C(C)C)NC(=O)OC(C)(C)C)C[C@@](O)([C@@H](OC(=O)c4cccc(OC(F)(F)F)c4)[C@H]21)C3(C)C	–	0.0314	–
CC(=O)O[C@@]12CO[C@@H]1C[C@H](O)[C@@]1(C)C(=O)[C@H](OC(=O)N(C)C)C3=C(C)[C@@H](OC(=O)[C@H](O)[C@H](C=C(C)C)NC(=O)OC(C)(C)C)C[C@@](O)([C@@H](OC(=O)c4cccc(C)c4)[C@H]21)C3(C)C	0.00024	–	–
CC(=O)O[C@H]1C(=O)[C@@]2(C)[C@H]([C@@H]3OC(=O)c4ccccc4OC/C=C/CC[C@H](NC(=O)OC(C)(C)C)[C@@H](O)C(=O)O[C@H]4C[C@]3(O)C(C)(C)C1=C4C)[C@]1(OC(C)=O)CO[C@@H]1C[C@@H]2O	–	–	IC50 [6]: 0.39 µM
CC(=O)O[C@H]1C(=O)[C@@]2(C)[C@H]([C@H](OC(=O)c3cccc(OC(F)(F)F)c3)[C@]3(O)C[C@H](OC(=O)[C@H](O)[C@H](C=C(C)C)NC(=O)OC(C)(C)C)C(C)=C1C3(C)C)[C@]1(OC(C)=O)CO[C@@H]1C[C@@H]2O	–	0.019	–
CCC(=O)O[C@H]1C(=O)[C@@]2(C)[C@H]([C@H](OC(=O)c3cccc(OC)c3)[C@]3(O)C[C@H](OC(=O)[C@H](O)[C@H](C=C(C)C)NC(=O)OC(C)(C)C)C(C)=C1C3(C)C)[C@]1(OC(C)=O)CO[C@@H]1C[C@@H]2O	–	0.0217	–
CC(=O)O[C@@]12CO[C@@H]1C[C@H](O)[C@@]1(C)C(=O)[C@H](OC(=O)N(C)C)C3=C(C)[C@@H](OC(=O)[C@H](O)[C@H](C=C(F)F)NC(=O)OC(C)(C)C)C[C@@](O)([C@@H](OC(=O)c4ccccc4)[C@H]21)C3(C)C	0.00014	–	–
COc1cccc2c1C(=O)c1c(O)c3c(c(O)c1C2=O)C[C@@](O)(C(=O)CO)C[C@@H]3O[C@H]1C[C@H](N)[C@H](O)[C@H](C)O1 [DOXORUBICIN]	0.078	–	–
CO[C@]12C=C[C@](C)(O1)[C@@H](OC(=O)/C=C/c1cn(C)cn1)C[C@H]1C(C)=CC[C@H](C(C)C)[C@H]1/C=C\2CO[C@@H]1OC[C@@H](O)[C@@H](O)[C@@H]1OC(C)=O [ELEUTHEROBIN]	–	–	Activity [7]: 60%; Activity [8]: 60%
CN(Cc1cnc2nc(N)nc(N)c2n1)c1ccc(C(=O)N[C@@H](CCC(=O)O)C(=O)O)cc1 [METHOTREXATE]	0.0327	–	–
CC(=O)O[C@H]1C(=O)[C@@]2(C)[C@H]([C@H](OC(=O)c3ccccc3)[C@]3(O)C[C@H](OC(=O)[C@H](O)[C@@H](NC(=O)c4ccccc4)c4ccccc4)C(C)=C1C3(C)C)[C@]1(OC(C)=O)CO[C@@H]1C[C@@H]2O [PACLITAXEL]	0.0338	–	–
CC[C@@]1(O)C(=O)OCc2c1cc1n(c2=O)Cc2cc3c(CN(C)C)c(O)ccc3nc2-1 [TOPOTECAN]	0.451	–	–
